In patent publication US20140051678A1, “INHIBITORS OF THE ACTIVITY OF COMPLEX III OF THE MITOCHONDRIAL ELECTRON TRANSPORT CHAIN AND USE THEREOF FOR TREATING DISEASES” (STEMERGIE BIOTECHNOLOGY SA, priority 2010, published 2014):
Read-outs that look alike come from different tables or passages of the source.

Legend:
[1] = test system: U-87 MG cells; test: MTT cytotoxicity / mitochondrial toxicity assay, glucose vs galactose medium, U-87 MG; assay type: cell-based, Human; settings: for AC50: Homo sapiens
Protocol: (§1) Human hepatocellular liver carcinoma cells (HepG2) or Human glioblastoma-astrocytoma, epithelial-like cells (U-87 MG) were plated on 96-well tissue culture treated polystyrene plates at 0.5×10^4 cells in 100 μL of Dulbecco's modified Eagle's medium containing either galactose or glucose supplemented with 10% foetal bovine serum and antibiotics per well. After 24 hr the cells are dosed with test compound at a range of concentrations and incubated for 72 nr. One hour prior to the end of the incubation period, the cells are loaded with MTT [yellow; 3-(4,5-dimethyl-2-thiazolyl)-2,5-diphenyl-2H-tetrazolium bromide], the plates are dried and re-solubilised using DMSO. The plates are then scanned using SpectraFluor Plus (TECAN).
(§2) To measure the relative sensitivity of HepG2 or U-87 MG cells grown in medium containing either galactose or glucose to the test compound.
(§3) Cytotoxicity was assessed using MTT. The assay provides a measurement of mitochondrial dehydrogenase activity and cell loss.
(§4) Cell Loss: A decrease can indicate a loss of cells indicating toxicity due to necrosis, apoptosis or a reduction in cellular proliferation.
(§5) Mitochondrial Activity: A decrease can also indicate an effect on mitochondrial function as mitochondrial dehydrogenases reduce the MTT [yellow; 3-(4,5-dimethyl-2-thiazolyl)-2,5-diphenyl-2H-tetrazolium bromide] to formazan. The formazan is detected in this assay (see assay protocol for details).
(§6) The AC50 is calculated from a four point logistic curve fit to determine percent survival of each test agent and control compound. The fold change is calculated from AC50 curve fit data by comparison with cells grown with glucose or galactose, A greater than 5-fold response in the presence of galactose indicates the compound is considered to be a mitochondrial toxicant.

[2] = test system: glioma-initiating cells (GICs); test: Short term dose response on gliomaspheres, cell death by FACS after trypan blue incorporation; assay type: cell-based, human; settings: 50 μM, 48 hrs
Protocol: Short term dose response of the compound of Example 4 was performed according to the method as described in the patent application PCT no PCTIB2010/052237 (WO 2010/134039).
Briefly, gliomaspheres were dissociated, counted and plated at 10 cells/μl in DMEM-F12, 2% B27, 1% peni/strep, EGF and bFGF at 1 ng/ml. Cells were then treated with various amount of the compound for 48 hrs and cell death was analysed by FACS after incorporation of trypan blue (1/1000).

[3] = test system: HepG2 cells; test: MTT cytotoxicity / mitochondrial toxicity assay, glucose vs galactose medium, HepG2; assay type: cell-based, Human; settings: for AC50: Homo sapiens
Protocol: as §1, §2, §3, §4, §5, §6

O=CNc1cccc(C(=O)NC2CCCCCCCC2)c1O [Example 4, N-cyclononyl-3-formamido-2-hydroxybenzamide]
Fold Change (AC50 glucose vs galactose) ([1]; 72 h): >70.1
AC50 ([1]; galactose medium, 72 h, MTT, read-out: Cell Loss - Galactose AC50): 1410 nM
AC50 ([1]; glucose medium, 72 h, MTT, read-out: Cell Loss - Glucose AC50): > 100000 nM
Cell Loss - Galactose MEC ([1]; galactose medium, 72 h, MTT): 1 µM
Cell Loss - Glucose MEC ([1]; glucose medium, 72 h, MTT): >100 µM
Mitochondrial Toxicant ([1]; greater than 5-fold response in galactose = mitochondrial toxicant): Yes
fold increase cell death [2]: ≥ 1.2 fold
Fold Change (AC50 glucose vs galactose) ([3]; HepG2, 72 h): 9.92
Cell Loss - Galactose MEC ([3]; HepG2, galactose medium, 72 h, MTT): 4 µM
Cell Loss - Glucose MEC ([3]; HepG2, glucose medium, 72 h, MTT): 10 µM
Mitochondrial Toxicant ([3]; HepG2, greater than 5-fold response in galactose = mitochondrial toxicant): Yes
AC50 ([3]; HepG2, galactose medium, 72 h, MTT, read-out: Cell Loss - Galactose AC50): 2400 nM
AC50 ([3]; HepG2, glucose medium, 72 h, MTT, read-out: Cell Loss - Glucose AC50): 23800 nM
